In patent US8461186B2, “Use of N-piperidine derivatives for the treatment of neurodegenerative pathologies” (Medestea Research & Production S.p.A., priority 2004, dated 2013):
Like-named read-outs stand apart in the source and are kept apart here.

Experiments:
[1] = system: rats receiving Paraquat into Substantia Nigra; assay type: in vivo, rat
Excerpt: The Paraquat/rat/PS experimental model was therefore selected as the most indicative for checking the efficacy of chemical compounds according to the present invention; of these, two anti-oxidants designated MP1002 and MP1001 were used in the tests:
Male Sprague Dawley rats (210-220 g weight) were kept on a standard laboratory diet supplemented with “Nossan Pellets” (both the animals and the pellets are available from Nossan Company, Milan, Italy) and were housed for three weeks (relative humidity 50%±10%, temperature 22° C.±1 and in a light/darkness cycle of 12 hours/12 hours, with first light at 7.30 a.m.) prior to the tests; food and water were available ad libitum.
Prior to treatment, the rats were anaesthetized by intraperitoneal injection of 380 mg/kg weight of chloral hydrate; a stainless steel guide cannula (size 25) was implanted unilaterally in the Substantia Nigra with stereotaxic guiding and was secured to the cranium with dental acrylic material.
The animals (20 per test group) were allowed a recovery period of seven days prior to treatment; during this period no change in motor activity or posture was observed. Microinfusions were performed by means of a 10 μl Hamilton syringe connected to an injection cannula by means of a Teflon tube. The compounds or the vehicle (0.8% NaCl) were injected at a total volume of 1 μl/minute.
Microinfusion of 50 μg of Paraquat into the Substantia Nigra (n=20 rats) led to an increase in motor activity with the animals performing jumps and moving in circles in a contralateral direction relative to the injection position, about 24 minutes later; all of the animals were dead 24±2.5 hours after infusion. A further twenty animals were infused with Paraquat and twenty with Paraquat plus vehicle; about ten of the animals for each group survived 20 hours after treatment and were used to determine the development of lipid peroxidation in the Substantia Nigra.

[2] = system: mean arterial blood pressure (MAP) and heart rate (HR) in the rat; assay: Mean arterial blood pressure (MAP) and heart rate (HR) in myocardial ischaemia and reperfusion; assay type: in vivo; conditions: for HR: in beats/min (unit assumed); for MAP: in mmHg (unit assumed)
Procedure: The rats (twenty per group) were anaesthetized by intraperitoneal injection of chloral hydrate (380 mg/kg) and were then tracheotomized, intubated and ventilated with ambient air by a suitable ventilator; body temperature was kept at 38° C.±1 and the right carotid artery was cannulated and connected to a pressure transducer to monitor the mean arterial blood pressure (MAP).
The coronary artery was occluded by tightening the occluder, a procedure which is correlated with the electrocardiographic and haemodynamic changes (drop in MAP) which are typical of myocardial ischaemia. After 25 minutes of myocardial ischaemia, the occluder was reopened, permitting reperfusion for 2 hours. The heart rate (HR) and MAP were monitored continuously.
The following test groups were considered: a) LAD occlusion (25 minutes) and reperfusion (2 hours) plus administration of the vehicle (saline solution, 3 ml/kg-v-bolus plus 1.8 ml/kg/h) starting 5 minutes after reperfusion and maintained during the reperfusion period; b) LAD occlusion and reperfusion plus administration of MP1002 or MP1001 (10 mg/kg injection in bolus) 5 minutes prior to reperfusion, followed by infusion of 2 mg/kg/h during the reperfusion period; c) sham operation (no LAD occlusion) and infusion of the vehicle; d) sham operation and infusion of MP1002 or MP1001 as described above.
The base haemodynamic results were similar in the various groups considered.

[3] = system: myocardial ischaemia and reperfusion (I/R) in the rat; assay: Myocardial lesion due to ischaemia and reperfusion (LAD occlusion): size of the infarct; assay type: in vivo; conditions: 10 mg/kg bolus 5 minutes prior to reperfusion, then 2 mg/kg/h; LAD occlusion 25 minutes, reperfusion 2 hours; p<0.01 (FIG. 1)
Procedure: The in vivo model of myocardial lesion due to ischaemia and reperfusion was selected as the most suitable for checking the efficacy of the compounds MP1002 and MP1001 according to the invention.
Male Sprague Dawley rats (220-230 g) were kept on a standard laboratory diet supplemented with “Nossan Pellets” (Nossan Company, Milan, Italy) and were housed for three weeks prior to the tests (relative humidity 50%±10, temperature 22° C.±1 and light/darkness cycle of 12/12 hours with first light at 7.30 a.m.); food and water were available ad libitum.
The rats (twenty per group) were anaesthetized by intraperitoneal injection of chloral hydrate (380 mg/kg) and were then tracheotomized, intubated and ventilated with ambient air by a suitable ventilator; body temperature was kept at 38° C.±1 and the right carotid artery was cannulated and connected to a pressure transducer to monitor the mean arterial blood pressure (MAP). […]
The coronary artery was occluded by tightening the occluder, a procedure which is correlated with the electrocardiographic and haemodynamic changes (drop in MAP) which are typical of myocardial ischaemia. […] The heart rate (HR) and MAP were monitored continuously. […]

[4] = system: lipid peroxidation in the Substantia Nigra; assay type: in vivo; conditions: for Lipid Peroxidation: Substantia Nigra, 24 hours
Procedure: Microinfusion of 50 μg of Paraquat into the Substantia Nigra (n=20 rats) led to an increase in motor activity with the animals performing jumps and moving in circles in a contralateral direction relative to the injection position, about 24 minutes later; all of the animals were dead 24±2.5 hours after infusion. […]
[…]. Enzymol. 52, 302-310, 1978.

[5] = 50 μg paraquat by microinfusion, 5 minutes later 100 mg/kg b.w. intraperitoneal
[6] = Paraquat (50 μg) microinfused simultaneously with 1 μg compound
[7] = pretreated intraperitoneally 120 mg/kg b.w., after 5 minutes paraquat (50 μg) by microinfusion
[8] = simultaneous microinfusion into Substantia Nigra of paraquat (50 μg) with 1 μg compound
[9] = simultaneously 50 μg paraquat by microinfusion and 120 mg/kg b.w. intraperitoneal
[10] = Sham operation, Occlusion 15 min
[11] = Sham operation, Occlusion 25 min
[12] = Sham operation, Reperfusion 15 min
[13] = Sham operation, Reperfusion 25 min

CC1(C)CC(OC(=O)CCCCCCCCC(=O)OC2CC(C)(C)N(O)C(C)(C)C2)CC(C)(C)N1O [MP1002, bis(1-oxyl-2,2,6,6-tetramethyl-4-piperidinyl)decandioate]
Duration (seizures) [1, 5]: No seizures and epileptic discharges | Latency (seizures) [1, 5]: No seizures and epileptic discharges | Mortality [1, 5]: 0% | deaths of rats ([1]; 120 mg/kg intraperitoneally 5 minutes prior to, simultaneously with, or 5 minutes after 50 μg Paraquat): none of the rats died | signs of alterations during continuous monitoring [1, 6]: no signs of alterations were observed | survival for a further 24 hours [1, 6]: all of the animals survived | capacity to cross the blood-brain barrier (BBB) ([1]; concluded from protection after intraperitoneal administration): cross the blood-brain barrier | protection against the behavioural and neuropathological effects induced by Paraquat ([1]; intracerebral and peripheral administration): protected completely | Duration (seizures) [1, 7]: No seizures and epileptic discharges | Latency (seizures) [1, 7]: No seizures and epileptic discharges | Mortality [1, 7]: 0% | Duration (seizures) [1, 8]: No seizures and epileptic discharges | Latency (seizures) [1, 8]: No seizures and epileptic discharges | Mortality [1, 8]: 0% | Duration (seizures) [1, 9]: No seizures and epileptic discharges | Latency (seizures) [1, 9]: No seizures and epileptic discharges | Mortality [1, 9]: 0% | HR ([2]; I/R, Baseline): 438 ± 30 | MAP ([2]; I/R, Baseline): 127 ± 14 | HR ([2]; I/R, Occlusion 15 min): 437 ± 32 | MAP ([2]; I/R, Occlusion 15 min): 121 ± 14 | HR ([2]; I/R, Occlusion 25 min): 431 ± 24 | MAP ([2]; I/R, Occlusion 25 min): 114 ± 10 | HR ([2]; I/R, Reperfusion 15 min): 427 ± 29 | MAP ([2]; I/R, Reperfusion 15 min): 102 ± 11 | HR ([2]; I/R, Reperfusion 25 min): 429 ± 25 | MAP ([2]; I/R, Reperfusion 25 min): 97 ± 9 | HR ([2]; Sham operation, Baseline): 421 ± 26 | MAP ([2]; Sham operation, Baseline): 125 ± 15 | HR [2, 10]: 420 ± 33 | MAP [2, 10]: 123 ± 16 | HR [2, 11]: 422 ± 25 | MAP [2, 11]: 120 ± 11 | HR [2, 12]: 428 ± 26 | MAP [2, 12]: 110 ± 12 | HR [2, 13]: 426 ± 32 | MAP [2, 13]: 105 ± 9 | mean MAP and HR values versus the I/R group treated with the vehicle alone ([2]; rats subjected to I/R): not significantly different | haemodynamic effects of infusion ([2]; sham operations (no LAD occlusion)): no substantial haemodynamic effects | reduction in the size of the infarct compared with the control [3]: 80% | Lipid Peroxidation [4, 5]: 4.1 ± 0.39 nmol MDA × h^−1 × mg prot^−1 | Lipid Peroxidation ([4]; pretreated intraperitoneally 120 mg/kg b.w., after 5 minutes paraquat (50 μg)): 5.2 ± 0.75 nmol MDA × h^−1 × mg prot^−1 | Lipid Peroxidation ([4]; simultaneous microinfusion of paraquat (50 μg) with 1 μg compound): 4.3 ± 0.63 nmol MDA × h^−1 × mg prot^−1 | Lipid Peroxidation [4, 9]: 4.9 ± 0.86 nmol MDA × h^−1 × mg prot^−1 | lipid peroxidation in the Substantia Nigra ([4]; treatment before, with, or after infusion with Paraquat, p<0.01): markedly and significantly (p<0.01) reduced lipid peroxidation
